Tests used:
[1] = tested on: GLP‐1R of Beta‐TC‐6 cells; assay: Affinity test (cell-based competitive flow cytometric receptor binding assay); conditions: 10 nM fluorescein-labelled Ex-4, 0.5 h, 310 K, compared to Ex4-PEG-MA
Experimental: The binding ability of γ‐PGA‐Ex‐4 compounds to GLP‐1R expressed on β‐cells surface was examined in a competitive flow cytometric assay. This receptor binding assay was developed based on similar, receptor targeting studies, of Ex‐4 targeting[85] and folate targeting.[86] The relative competition capability to the target receptor, compared to Ex4‐PEG‐MA, was evaluated among γ‐PGA‐Ex‐4 conjugates at different degrees of functionalization. The obtained values were normalized with respect to the degree of functionalization of each bioconjugate, so that the comparison is not affected by the different amount of Ex‐4 molecules on each polymeric chain. GLP‐1R positive Beta‐TC‐6 cells were co‐incubated with fluorescein‐labelled Ex‐4 and the different Ex‐4 formulations, γ‐PGA‐Ex‐4‐1, γ‐PGA‐Ex‐4‐2, γ‐PGA‐Ex‐4‐3, and Ex4‐PEG‐MA or Ex‐4 as references. […]
5×10^5 cells were incubated with 10 nм fluorescein‐labelled Ex‐4 (Eurogentec) alone or together with the tested compounds at 310 K in RPMI supplemented with 10 % FBS. After 0.5 h the cells were washed with ice cold PBS and fluorescence of the cells was measured by flow cytometer (BD FACSCalibur). […] The binding ability of γ‐PGA‐Ex‐4 conjugates and peptides to the GLP‐1R positive cells was calculated based on the inhibition of the fluorescent Ex‐4 derived signal. […]

[2] = tested on: dipeptidyl peptidase‐IV (DPP‐IV); conditions: natural ligand GLP-1 rapidly degraded by DPP-IV; cited from earlier work
Source text: Type 2 diabetes is an unresolved pathology, related to genetic and environmental factors, which gradually decline the pancreatic islet functionality, finally culminating in a pathological phenomenon defined as hyperglycemia.[1] Pancreatic β‐cells take on a key role in the so‐called glucose homeostasis by secreting insulin and amylin.[2] A wide range of pharmacologic treatments have been developed, but none of them is considered the ultimate solution.[3] The classic target for diabetes 2 therapies is GLP‐1R, that stimulates insulin secretion upon interaction with its natural ligand, gluca ...

Substance | Binding / affinity towards GLP‐1R positive β‐cells (in words) [1] | time to degradation by DPP‐IV [2]
HGEGTFTSDLSKQMEEE‐AVRLFIEWLys(PEG4‐Mal)KNGGPSSGAPPP S‐NH2 [Ex‐4‐PEG‐MA, exendin‐4(Lysine27‐PEG4‐maleimide), purchased from Caslo ApS] | still capable to bind GLP‐1R | 
glucagon‐like peptide 1 [GLP‐1] |  | < 2 min

Source: paper PMC9542156, “Multivalent γ‐PGA‐Exendin‐4 Conjugates to Target Pancreatic β‐Cells” (Chembiochem, 2022)
